From patent US10206388B2, “Formulation component” (SYNGENTA LIMITED, priority 2011, dated 2019)

Columns and labels:
Assay type in all cases: in vivo
Tetranychus urticae = assay: Two spotted spider mite mortality on French bean, abamectin with aromatic ester adjuvants; conditions: for % mortality of Tetranychus urticae: adjuvant 0.1% v/v where present, French bean, 10 days, larva and adults averaged
Procedure: The efficacy of the benzoic acid esters Finsolv® SB (isostearyl benzoate) and Finsolv® TN (C12-C15 alkyl benzoate) and the aromatic ester ethoxylate Dermol®25-3B (C12-C15 alkyl ethoxy (3) benzoate) as adjuvants in compositions containing abamectin was tested and compared to the efficacy of abamectin compositions which lack this type of adjuvant. The adjuvants were present at 0.1% v/v in the abamectin compositions. The surfactants polyoxyethylene sorbitan monooleate and an ethoxylated castor oil were also present in all the abamectin compositions tested.
Two week old French bean (Phaseolus vulgaris) plants were infested with a mixed population of two spotted spider mite Tetranychus urticae. One day after infestation the plants were treated with the test compositions, with a track sprayer from the top with a rate of 200 liters per hectare. Plants were incubated in the greenhouse for 10 days and the evaluation was done on mortality against Larva and Adults, just on the lower side (untreated) of the leaves. Each experiment was replicated twice and the results were averaged. The mortality against Larva and Adults was then averaged.

[1] = tested on: Abutilon theophrasti (ABUTH); assay: Glasshouse weed test, nicosulfuron with adjuvants; conditions: mean over two rates
Procedure: (§1) The aromatic ester Finsolv® TN (C12-C15 alkyl benzoate) was tested in a glasshouse against four weed species using the herbicide nicosulfuron. An agrochemical composition was prepared containing 0.2% v/v of the adjuvant in a track sprayer, and was applied at a volume of 200 liters per hectare. Nicosulfuron was applied at either 30 or 60 grams of pesticide per hectare on each of the weed species. The weed species and their growth stage at spraying were Abutilon theophrasti (ABUTH; growth stage 13), Chenopodium album (CHEAL; growth stage 14), Digitaria sanguinalis (DIGSA; growth stage 13), and Setaria viridis (SETVI; growth stage 13).
(§2) Each spray test replicated three times. The efficacy of the herbicide was assessed visually and expressed as a percentage of the leaf area killed. Samples were assessed at time periods of 7, 14 and 20 days following application. The results shown in Table 6 below are mean averages over the two rates of nicosulfuron, three replicates and the three assessment timings, and are compared to the efficacy of nicosulfuron in the absence of an adjuvant, and nicosulfuron in the presence of the commercially available tank-mix adjuvant, Atplus411F®.
(§3) A second experiment was conducted to assess the efficacy of Finsolv® TN as an adjuvant in compositions of nicosulfuron. This was carried out as outlined above, with the following change: samples were assessed at 14 and 20 days post application.
(§4) The results shown in Table 7 below are mean averages over the two rates of nicosulfuron, three replicates and the two assessment timings, and are compared to the efficacy of nicosulfuron in the absence of an adjuvant, and nicosulfuron in the presence of the commercially available tank-mix adjuvant, Atplus411F®.
(§5) The aromatic esters Benzoate 1 (see Example 9), Benzoflex 354 (2,2,4-trimethyl-1,3-pentanediol dibenzoate) and Finsolv® SB (stearyl benzoate) were tested in a glasshouse against four weed species using the herbicide nicosulfuron. Nicosulfuron was applied at either 30 or 60 grams of pesticide per hectare on each of the weed species. The weed species and their growth stage at spraying were Abutilon theophrasti (ABUTH; growth stage 13), Chenopodium album (CHEAL; growth stage 14), Digitaria sanguinalis (DIGSA; growth stage 13), and Setaria viridis (SETVI; growth stage 13).
as §2, with “of” for “of 7,”, “Table 14” for “Table 6”, “the two” for “the three”

[2] = tested on: Chenopodium album (CHEAL); assay: Glasshouse weed test, nicosulfuron with adjuvants; conditions: mean over two rates
Procedure: as §1, §2, §3, §4, §5
as §2, with “of” for “of 7,”, “Table 14” for “Table 6”, “the two” for “the three”

[3] = tested on: Digitaria sanguinalis (DIGSA); assay: Glasshouse weed test, nicosulfuron with adjuvants; conditions: mean over two rates
Procedure: as §1, §2, §3, §4, §5
as §2, with “of” for “of 7,”, “Table 14” for “Table 6”, “the two” for “the three”

Setaria viridis (SETVI) = assay: Glasshouse weed test, nicosulfuron with adjuvants; conditions: mean over two rates
Procedure: as §1, §2, §3, §4, §5
as §2, with “of” for “of 7,”, “Table 14” for “Table 6”, “the two” for “the three”

[4] = tested on: four weed species (ABUTH, CHEAL, DIGSA, SETVI); assay: Glasshouse weed test, nicosulfuron with adjuvants, mean across species; conditions: mean over two rates
Procedure: as §1, §2, §3, §4, §5
as §2, with “of” for “of 7,”, “Table 14” for “Table 6”, “the two” for “the three”
An agrochemical composition was prepared containing 0.2% v/v of the adjuvant in a track sprayer and was applied at a volume of 200 liters per hectare. The adjuvant oils were emulsified using a small amount of the surfactant Pluronic® PE 10500, which was present in the composition at a concentration of 0.02% v/v. Nicosulfuron was applied at either 30 or 60 grams of pesticide per hectare on each of the weed species. The weed species and their growth stage at spraying were Abutilon theophrasti (ABUTH; growth stage 13), Chenopodium album (CHEAL; growth stage 14-15), Digitaria sanguinalis (DIGSA; growth stage 14), and Setaria viridis (SETVI; growth stage 13-14).
Each spray test replicated three times. The efficacy of the herbicide was assessed visually and expressed as a percentage of the leaf area killed. Samples were assessed at time periods of 14 and 21 days following application. […]

[5] = Table 6, Example 5: nicosulfuron 30 or 60 g/ha, adjuvant 0.2% v/v, three replicates, 7, 14 and 20 days
[6] = Table 7, Example 5 second experiment: nicosulfuron 30 or 60 g/ha, adjuvant 0.2% v/v, three replicates, 14 and 20 days
[7] = Table 14, Example 10: nicosulfuron 30 or 60 g/ha, three replicates, 14 and 20 days

abamectin
% mortality of Tetranychus urticae (Tetranychus urticae; abamectin 0.2 ppm): 0%
% mortality of Tetranychus urticae (Tetranychus urticae; abamectin 0.4 ppm): 0%
% mortality of Tetranychus urticae (Tetranychus urticae; abamectin 0.8 ppm): 27%
% mortality of Tetranychus urticae (Tetranychus urticae; abamectin 1.5 ppm): 70%
% mortality of Tetranychus urticae (Tetranychus urticae; abamectin 3 ppm, lower untreated leaf side): 95%

CC(C)CCCCCCCCCCCCCCCOC(=O)c1ccccc1 [Finsolv® SB, Isostearyl benzoate]
Mortality of Tetranychus urticae (Tetranychus urticae; aromatic ester composition 0.1% v/v without abamectin present): no mortality

COc1cc(OC)nc(NC(=O)NS(=O)(=O)c2ncccc2C(=O)N(C)C)n1 [Nicosulfuron, nicosulfuron]
Mean percentage kill ABUTH [1, 5]: 19.4 B %
Mean percentage kill ABUTH [1, 6]: 29.2 B %
Mean percentage kill ABUTH [1, 7]: 56.7 C %
Mean percentage kill CHEAL [2, 5]: 26.7 B %
Mean percentage kill CHEAL [2, 6]: 25.8 B %
Mean percentage kill CHEAL [2, 7]: 44.6 B %
Mean percentage kill DIGSA [3, 5]: 1.1 B %
Mean percentage kill DIGSA [3, 6]: 0.0 B %
Mean percentage kill DIGSA [3, 7]: 56.3 B %
Mean percentage kill SETVI (Setaria viridis (SETVI); [5]): 33.3 C %
Mean percentage kill SETVI (Setaria viridis (SETVI); [6]): 61.3 C %
Mean percentage kill SETVI (Setaria viridis (SETVI); [7]): 81.0 B %
Mean percentage kill, Mean across species [4, 5]: 20.1 B %
Mean percentage kill, Mean across species [4, 6]: 29.1 B %
Mean percentage kill, Mean across species [4, 7]: 59.6 B %
Mean percentage kill, Mean across species ([4]; Table 19, Example 15: nicosulfuron 30 or 60 g/ha, adjuvant 0.2% v/v emulsified with Pluronic PE 10500 0.02% v/v, three replicates, 14 and 21 days): 29.8B %
Mean percentage kill, Mean across species ([4]; Table 23, Example 19: absence of an adjuvant, nicosulfuron 30 or 60 g/ha, three replicates, 14 and 21 days): 40.1%
Mean percentage kill, Mean across species ([4]; Table 33, Example 33: nicosulfuron 30 or 60 g/ha, three replicates, 14 and 21 days): 40.1B %
